Reference: patent publication US12692477B2, “Medium composition for culturing porcine pluripotent stem cells” (SPACE F CORP., priority 2018, dated 2026)

B1: activin A: activin A, signal molecule acting through the SMAD signal transduction system (protein, UniProt P08476 311-426, looked up)
Inhibin beta A chain: GLECDGKVNICCKKQFFVSFKDIGWNDWIIAPSGYHANYCEGECPSHIAGTSGSSLSFHSTVINHYRMRGHSPFANLKSCCVPTKLRPMSMLYYDDGQNIIKKDIQNMIVEECGCS

Experiments:
[1] = test system: porcine pluripotent stem cells; assay: Influence of growth factor concentration in porcine pluripotent stem cell culture medium; format: cell-based; settings: for Optimal concentration / optimal concentration: in culture medium
Description: The influence of a growth factor concentration in a porcine pluripotent stem cell culture medium established in the above-described example was analyzed, and the results are shown in Table 10. When the concentration of growth factors was low, the growth of stem cells was reduced, and when the concentration of growth factor was high, except for bFGF, cells were killed. The allowable concentration of the bFGF was 3.03×10^−4 to 6.06×10^−3 μM, and the optimal concentration was 1.21×10^−3 μM. The allowable concentration of the Activin A was 1.50×10^−4 to 5.40×10^−4 μM, and the optimal concentration was 3.85×10^−4 μM. The allowable concentration of the CHIR99021 was 0.5 to 2.50 μM, and the optimal concentration was 1.50 μM. The allowable concentration of the IWR-1 was 1.20 to 3.00 μM, and the optimal concentration was 2.50 μM.

[2] = test system: porcine blastocysts (inner cell mass); assay: Culture of porcine blastocysts on feeder cells with signal molecule combinations in serum replacement medium; format: cell-based
Description: First, a culture medium including KSR, N2/B27, KSR+N2/B27, or KSR+LC was used to find a serum replacement suitable for the growth of porcine embryos. […] As a result, it was confirmed that the inner cell mass expressing SOX2 rapidly grew in the group treated with KSR and KSR+LC (FIG. 1). Second, for long-term culturing of the inner cell mass, signal molecules were treated in various combinations (Table 6 and Table 7).
The culturing was attempted by adding signal molecules to basal medium including KSR or KSR+LC. Porcine embryonic stein cells were established in a culture medium including FGF2, A, and 6-[[2-[[4-(2,4-Dichlorophenyl)-5-(5-methyl-1H-imidazol-2-yl)-2-pyrimidinyl]amino]ethyl]amino]-3-pyridinecarbonitrile (CHIR99021) in a culture solution including serum replacement 4 (Tables 6 and 7, FIG. 2). In addition, for the stabilization of CHIR99021, 4-(1,3,3a,4,7,7a-Hexahydro-1,3-dioxo-4,7-methano-2H-isoindol-2-yl)-N-8-quinolinyl-Benzamide (IWR-1) was added to establish the composition for long-term culturing and maintenance of porcine embryonic stem cells, as shown in Table 8 and Table 9, respectively.

| Molecule | Optimal concentration [1] | optimal concentration [1] | Blastocyst initial growth rate (%) ([2]; serum replacement 1) | Sox2 positive rate of the initial population (%) ([2]; serum replacement 1) | Number of embryonic stem cell lines established in the long-term culture ([2]; serum replacement 1, 30 blastocysts) | Blastocyst initial growth rate (%) ([2]; serum replacement 4) | Sox2 positive rate of the initial population (%) ([2]; serum replacement 4) | Number of embryonic stem cell lines established in the long-term culture ([2]; serum replacement 4, 29 blastocysts) | Symptoms when exceeding the appropriate concentration [1] |
| --- | --- | --- | --- | --- | --- | --- | --- | --- | --- |
| Cc1cnc(-c2cnc(NCCNc3ccc(C#N)cn3)nc2-c2ccc(Cl)cc2Cl)[nH]1 [CHIR99021, 6-[[2-[[4-(2,4-Dichlorophenyl)-5-(5-methyl-1H-imidazol-2-yl)-2-pyrimidinyl]amino]ethyl]amino]-3-pyridinecarbonitrile, reference compound] | 0.0015 mM | 1.50 µM | – | – | – | – | – | – | – |
| O=C(Nc1cccc2cccnc12)c1ccc(N2C(=O)C3C4C=CC(C4)C3C2=O)cc1 (stereo not drawn) [IWR-1, 4-(1,3,3a,4,7,7a-Hexahydro-1,3-dioxo-4,7-methano-2H-isoindol-2-yl)-N-8-quinolinyl-Benzamide, reference compound] | 0.0025 mM | 2.50 µM | – | – | – | – | – | – | – |
| bFGF: basic fibroblast growth factor, signal molecule in the culture medium | 1.21e-06 mM | 0.00121 µM | 30.0 ± 5.8% | 30.0 ± 5.8% | 0 | 51.5 ± 4.6% | 44.8 ± 2.9% | 0 | – |
| B1 | 3.85e-07 mM | 0.000385 µM | – | – | – | – | – | – | Cell death |
